Measurements reported in patent publication EP4803513A1, “SUBSTITUTED QUINAZOLINE COMPOUND, PREPARATION METHOD THEREFOR, PHARMACEUTICAL COMBINATION THEREOF, AND USE THEREOF” (Hongyun Biotech Co., Ltd., priority 2023, dated 2025).

What was measured:
GA6208 = assay: In vitro activity test of gastric cancer PDX (CellTiter-Glo), GA6208; format: cell-based; settings: PDX GA6208, gastric cancer with high BRK expression, 168 hours
Experimental: (§1) Patient-derived xenograft (PDX) models are methods in which tumor tissue from cancer patients is transplanted into severely immunodeficient mice for culture and passaging, and used to test compound activity. The compounds of the present invention were tested using three PDX samples (GA0119, GA6208, and GA6871, all being gastric cancers with high BRK expression, all cultured in DMEM).
(§2) Preparation of PDX model tumor cell suspension: PDX model animals were housed in the animal facility, and tumor growth was observed weekly. When the PDX model tumor grew to an appropriate size, the tumor was removed and minced using sterile surgical instruments. Collagenase B digestion solution was added, and digestion was performed at 37°C for approximately 2 hours. Undigested tissue was removed by passing through a cell strainer. The strainer was washed with PBS 3-5 times, and the cell pellet was washed with PBS 4 times. Tumor cells were resuspended in culture medium. ACK lysis buffer was used to remove red blood cells when necessary.
(§3) Cell plating: The above cell suspension was taken and counted. The cell suspension concentration was adjusted to 5.75 × 10^5 cells/mL by dilution with culture medium. 3.5 mL of the cell suspension and 6.5 mL of 1% methylcellulose solution were mixed thoroughly. 100 µL of the cell suspension was added to each well of a 96-well plate (including compound-treated cell plates and T0 control cell plates), followed by incubation overnight under conditions of 37°C, 5% CO2, and 95% humidity.
(§4) Day 0 cell viability reading: The CellTiter-Glo® reagent and T0 control cell culture plate were equilibrated at room temperature for 30 minutes. 100 µL of CellTiter-Glo® reagent was added to each well. The plate was shaken on an orbital shaker for 20 minutes to ensure complete cell lysis. The cell culture plate was then equilibrated at room temperature for 10 minutes, and the chemiluminescence signal was read using an EnVision plate reader.
(§5) Day 0 compound treatment: The test compound (stock concentration 10 mM) was taken out and equilibrated at room temperature for use. The compound treatment cell plate was taken out. The test compound solution was added to the corresponding wells. The highest concentration for each compound was 30 µM, with 3-fold serial dilutions, 9 concentration points, each concentration point in triplicate (DMSO concentration normalized). The final concentration of DMSO in each cell well was 0.3%. The dosed 96-well plate was then placed in an incubator at 37°C, 5% CO2, and 95% humidity for continued culture for 168 hours.
(§6) Day 7 cell viability reading: The CellTiter-Glo® reagent and cell culture plate were equilibrated at room temperature for 30 minutes. 100 µL of CellTiter-Glo® reagent was added to each well. The plate was shaken on an orbital shaker for 20 minutes to lyse the cells. The cell plate was then placed at room temperature for 10 minutes to stabilize the luminescence signal, and the luminescence value was read using an EnVision plate reader.
(§7) Data processing: Data were analyzed using GraphPad Prism 9.0 software. A nonlinear sigmoidal curve regression was used to fit the data and generate a dose-response curve, from which the IC50 value was calculated. Cell survival rate (%) = (Lumtest compound - Lummedium control) / (Lumcell control - Lummedium control) × 100%. Lum represents the luminescence value.

[1] = test system: gastric cancer xenograft model GA6208; assay: In vivo efficacy evaluation of gastric cancer PDX (GA6208); parameters: species or system Balb/c nude mice; settings: for Day 35 tumor volume (mean ± SEM): I-21 100 mg/kg oral gavage twice daily, I-81 100/80 mg/kg oral gavage twice daily, cisplatin 3 mg/kg tail vein once weekly, in mm³ (unit assumed); for Day 35 TGI (%): tumor growth inhibition vs vehicle control, same dosing as tumor volume
Description: Tumor tissue was collected from tumor-bearing mice of the gastric cancer xenograft model GA6208, cut into tumor pieces of 2-3 mm in diameter, and subcutaneously inoculated at the right front scapular region of Balb/c nude mice. When the mean tumor volume of the tumor-bearing mice reached approximately 150 mm^3 (100-200 mm^3), the mice were randomly divided into 4 groups of 8 mice each, and administered as follows: vehicle control (0.5% CMC-Na solution, oral gavage, twice daily), compound I-21 (100 mg/kg, oral gavage, twice daily), compound I-81 (100 mg/kg for the first 8 days, then 80 mg/kg for the subsequent 27 days, oral gavage, twice daily), and cisplatin (3 mg/kg, tail vein injection, once weekly), for a total of 35 days.

GA6871 = assay: In vitro activity test of gastric cancer PDX (CellTiter-Glo), GA6871; format: cell-based; settings: PDX GA6871, gastric cancer with high BRK expression, 168 hours
Experimental: as §1, §2, §3, §4, §5, §6, §7

WT-BaF3 cells = assay: Cell antiproliferative activity assay (CCK-8), WT-BaF3 (broad-spectrum cytotoxicity); format: cell-based; settings: 72 h; WT-BaF3 cells (IL-3 supplemented), CCK-8, 3 days incubation
How it was run: (§8)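 Growth inhibition over 3 days, with compound serially diluted 3-fold from a 10 µM top concentration. Cells seeded at 100,000 cells/mL; WT-BaF3 medium carried 10% WEHI supernatant as the IL-3 source. Viability read by CCK-8 OD450 after 2-4 h; IC50 from blank-subtracted curve fit.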

GA0119 = assay: In vitro activity test of gastric cancer PDX (CellTiter-Glo), GA0119; format: cell-based; settings: PDX GA0119, gastric cancer with high BRK expression, 168 hours
Experimental: as §1, §2, §3, §4
Day 0 compound treatment: The test compound (stock concentration 10 mM) was taken out and equilibrated at room temperature for use. The compound treatment cell plate was taken out. The test compound solution was added to the corresponding wells. […]
as §6, with “100 µL of CellTiter-Glo® reagent was added to each well. The plate was shaken on an orbital shaker for 20 minutes to lyse the cells.” left out
Data processing: Data were analyzed using GraphPad Prism 9.0 software. A nonlinear sigmoidal curve regression was used to fit the data and generate a dose-response curve, from which the IC50 value was calculated. […] Lum represents the luminescence value.

BRK-BaF3 cells = assay: Cell antiproliferative activity assay (CCK-8), BRK-BaF3; format: cell-based; settings: 72 h, CCK-8, 3 days incubation
How it was run: as §8

T47D cells = assay: Cell antiproliferative activity assay (CCK-8), T47D; format: cell-based; settings: Homo sapiens, 72 h, breast cancer cell line T47D, incubation for 3 days
Experimental: BRK-BaF3, WT-BaF3, WEHI cell line, and breast cancer cell line T47D were cultured using RPMI 1640 Basal medium or DMEM (Dulbecco's Modified Eagle Medium) (Shanghai Peiyuan Biotechnology, L220KJ), supplemented with 10% FBS (Gibco, REF 10099-141C) and 1% P/S (Shanghai Peiyuan Biotechnology, S110JV), in an incubator (Thermo 3020) at 37°C with 5% CO2. Cell viability was above 95%. Cells were passaged at a 3:1 ratio every 3-4 days. For WT-BaF3 cells, WEHI cells were first cultured, and their culture supernatant was filtered through a 0.22 µm filter. This supernatant was added at 10% to the regular culture medium to supplement IL-3 required for WT-BaF3 cell proliferation, which served as the culture medium for WT-BaF3. For testing, cells were first collected and counted, then prepared into a cell suspension at 100,000 cells/mL and plated at 100 µL per well. Drug concentrations started from 10 µM and were serially diluted 3:1. After incubation for 3 days, 20 µL of CCK-8 detection reagent (Targetmol C005) was added to each well. After incubation for 2-4 hours, OD450 was measured using a microplate reader (Varioskan LUX, Thermo Scientific). After subtracting the blank background, the curve was fitted and the IC50 was calculated using XLfit software.
In addition, the following table exemplarily lists the IC50 values of some compounds of the present invention against T47D cells.

SMILES	IC50 (GA6208) [µM]	Day 35 tumor volume (mean ± SEM) [1]	Day 35 TGI (%) [1] [%]	IC50 (GA6871) [µM]	IC50 (WT-BaF3 cells) [µM]	IC50 (GA0119) [µM]	IC50 (BRK-BaF3 cells) [µM]	IC50 (T47D cells) [µM]
Cc1nn(CCO)cc1Nc1ncc2cc(-c3nccnc3C)cc(C(C)C)c2n1 [I-81]	3.92	595.03±30.63	57.89	7.13	> 2.5	4.54	≤ 0.02	–
COc1c(P(C)(C)=O)ccc(Nc2ncc3cc(-c4nccnc4C)cc(C4CC4)c3n2)c1F [II-69]	5.63	–	–	9.28	> 2.5	8.01	≤ 0.02	≤ 0.5
Cc1nn(CCO)cc1Nc1ncc2cc(-c3nccnc3C)cc(C(F)(F)F)c2n1 [I-109]	8.53	–	–	17	> 2.5	–	≤ 0.02	–
Cc1nn(CCO)cc1Nc1ncc2cc(-c3cccnc3)cc(C(C)C)c2n1 [I-21]	0.62	782.88±71.02	44.59	2.13	> 2.5	1.14	≤ 0.02	–
N.N.[Cl][Pt][Cl] [cisplatin, reference compound]	0.298	1250.42±137.64	11.50	4.28	–	1.38	–	–
